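Five concentrations, 48 hours, 96-well plates. GI50: concentration for 50% inhibition of growth.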 Active and inactive are the calls of the source. Rule as the data show it: active = GI50 up to about 1.1 µM and inactive = higher.
Columns and labels:
Test in all cases: DTP human tumour cell line panel, 48 h
M14 = system: M14
UO-31 = system: UO-31
MDA-MB-435 = system: MDA-MB-435
IGROV-1 = system: IGROV-1
U-251 = system: U-251
TK-10 = system: TK-10
OVCAR-8 = system: OVCAR-8
MDA-MB-231 = system: MDA-MB-231
SN12C = system: SN12C
NCI-H522 = system: NCI-H522
HT-29 = system: HT-29
OVCAR-4 = system: OVCAR-4
SK-MEL-2 = system: SK-MEL-2
NCI/ADR-RES = system: NCI/ADR-RES
Malme-3M = system: Malme-3M
T47D = system: T47D
SF-268 = system: SF-268
NCI-H460 = system: NCI-H460
786-0 = system: 786-0
HCC 2998 = system: HCC 2998

Measured: GI50

C[N+](C)(C)C(C1=CCCC1=O)c1ccccc1 (stereo unspecified)
inactive: M14 > 100 µM | UO-31 > 100 µM | MDA-MB-435 26.2 µM | IGROV-1 30.3 µM | U-251 20.6 µM | TK-10 48.5 µM | OVCAR-8 25 µM | MDA-MB-231 29 µM | SN12C 20.3 µM | NCI-H522 18.7 µM | HT-29 23.5 µM | OVCAR-4 80.7 µM | SK-MEL-2 84.9 µM | NCI/ADR-RES 33.8 µM | Malme-3M 19.2 µM | T47D 43.8 µM | SF-268 18.6 µM | NCI-H460 28.4 µM | 786-0 19.7 µM

O=C1/C(=C/c2ccccc2[N+](=O)[O-])N=C(c2ccccc2)N1c1nc2ccccc2s1
inactive: M14 42.7 µM | UO-31 31.6 µM | MDA-MB-435 19.4 µM | IGROV-1 11.9 µM | U-251 29.4 µM | TK-10 49.2 µM | OVCAR-8 17.4 µM | MDA-MB-231 45.9 µM | SN12C 25 µM | NCI-H522 18.6 µM | HT-29 35.4 µM | OVCAR-4 19.4 µM | SK-MEL-2 33.2 µM | NCI/ADR-RES 16.6 µM | T47D 21.7 µM | SF-268 20.5 µM | NCI-H460 27 µM | 786-0 21.7 µM | HCC 2998 17.8 µM

O=C1c2cc([N+](=O)[O-])ccc2NC2C(O)c3ccccc3N12 (stereo unspecified)
inactive: M14 47.4 µM | UO-31 25.9 µM | MDA-MB-435 52.8 µM | IGROV-1 24.9 µM | U-251 23.5 µM | TK-10 13.2 µM | OVCAR-8 23.3 µM | MDA-MB-231 31.6 µM | SN12C 48.9 µM | NCI-H522 16.2 µM | HT-29 80.4 µM | OVCAR-4 19.7 µM | SK-MEL-2 33.3 µM | NCI/ADR-RES 23.5 µM | T47D 14.2 µM | SF-268 27.2 µM | NCI-H460 26.4 µM | 786-0 25.2 µM | HCC 2998 47.9 µM

C[N+](C)(C)/C=N\c1cccc2nsnc12
inactive: M14 > 100 µM | UO-31 > 100 µM | MDA-MB-435 > 100 µM | IGROV-1 > 100 µM | U-251 > 100 µM | TK-10 > 100 µM | OVCAR-8 > 100 µM | MDA-MB-231 > 100 µM | SN12C > 100 µM | NCI-H522 > 100 µM | HT-29 > 100 µM | OVCAR-4 > 100 µM | SK-MEL-2 > 100 µM | NCI/ADR-RES > 100 µM | Malme-3M > 100 µM | T47D > 100 µM | SF-268 > 100 µM | 786-0 > 100 µM

N#CC(/N=N/c1ccccc1C(=O)O)C(N)=O (stereo unspecified)
inactive: M14 > 100 µM | UO-31 > 100 µM | MDA-MB-435 > 100 µM | U-251 > 100 µM | TK-10 > 100 µM | MDA-MB-231 > 100 µM | SN12C > 100 µM | NCI-H522 > 100 µM | HT-29 > 100 µM | OVCAR-4 > 100 µM | SK-MEL-2 > 100 µM | NCI/ADR-RES 39.8 µM | Malme-3M 91.2 µM | T47D > 100 µM | NCI-H460 > 100 µM | 786-0 > 100 µM

C(=N\Cc1ccccc1)/c1ccccc1-c1ccccc1/C=N/Cc1ccccc1
inactive: M14 9.86 µM | UO-31 > 10 µM | MDA-MB-435 > 10 µM | IGROV-1 > 7.46 µM | U-251 6.5 µM | TK-10 > 10 µM | OVCAR-8 > 10 µM | MDA-MB-231 > 10 µM | SN12C > 10 µM | NCI-H522 > 10 µM | HT-29 > 10 µM | OVCAR-4 > 7.96 µM | SK-MEL-2 > 10 µM | NCI/ADR-RES > 10 µM | Malme-3M > 9.62 µM | T47D 4.99 µM | SF-268 > 10 µM | NCI-H460 > 8.34 µM | 786-0 > 10 µM

Cc1cc(C(=O)CCCCOc2ccc(C3=NCCO3)cc2)c(C)n1C
inactive: M14 37.8 µM | UO-31 39.9 µM | MDA-MB-435 24.7 µM | IGROV-1 37.2 µM | U-251 31.3 µM | TK-10 44.9 µM | OVCAR-8 33.2 µM | MDA-MB-231 > 100 µM | SN12C 56.5 µM | NCI-H522 50.7 µM | HT-29 39.1 µM | OVCAR-4 36.5 µM | SK-MEL-2 28.7 µM | NCI/ADR-RES 26.7 µM | Malme-3M 35.3 µM | T47D 23 µM | SF-268 52.1 µM | 786-0 38.6 µM

CC(C(N)C(=O)NC(C(=O)O)C1OC(n2ccc(=O)[nH]c2=O)C(O)C1O)C(O)c1ccc(O)cn1 (stereo unspecified)
inactive: M14 > 100 µM | UO-31 > 100 µM | MDA-MB-435 > 100 µM | IGROV-1 > 100 µM | U-251 > 100 µM | TK-10 > 100 µM | OVCAR-8 > 100 µM | MDA-MB-231 > 100 µM | SN12C > 100 µM | NCI-H522 > 100 µM | HT-29 > 100 µM | SK-MEL-2 > 100 µM | NCI/ADR-RES > 100 µM | T47D > 100 µM | SF-268 > 100 µM | NCI-H460 > 100 µM | 786-0 > 100 µM | HCC 2998 > 100 µM

Cc1cc(C)c2c(SCc3ccc(Cl)cc3Cl)nc(N)nc2n1
inactive: M14 82.6 µM | UO-31 23.5 µM | MDA-MB-435 83 µM | IGROV-1 28.7 µM | U-251 36.5 µM | TK-10 17.6 µM | OVCAR-8 28.9 µM | MDA-MB-231 > 100 µM | SN12C 21.2 µM | NCI-H522 15.5 µM | HT-29 > 100 µM | OVCAR-4 > 100 µM | SK-MEL-2 50.1 µM | NCI/ADR-RES > 100 µM | Malme-3M 32 µM | T47D 17.2 µM | SF-268 > 100 µM | NCI-H460 21.7 µM | 786-0 17.1 µM

CC(C)(C)c1ccc2c(c1)C#Cc1cc(C(C)(C)C)ccc1OCCCO2
inactive: M14 > 100 µM | UO-31 > 100 µM | MDA-MB-435 > 100 µM | IGROV-1 > 100 µM | U-251 > 100 µM | TK-10 > 100 µM | OVCAR-8 > 100 µM | MDA-MB-231 > 100 µM | SN12C > 100 µM | NCI-H522 > 100 µM | HT-29 > 100 µM | OVCAR-4 > 100 µM | SK-MEL-2 > 100 µM | NCI/ADR-RES > 100 µM | Malme-3M > 100 µM | T47D > 100 µM | SF-268 > 100 µM | NCI-H460 > 100 µM | 786-0 > 100 µM

CCOC(=O)CN1CCNCCN(CC(=O)OCC)CCNCC1
inactive: UO-31 52.6 µM | MDA-MB-435 > 100 µM | IGROV-1 > 100 µM | U-251 > 100 µM | TK-10 > 100 µM | OVCAR-8 > 100 µM | MDA-MB-231 > 100 µM | SN12C > 100 µM | NCI-H522 > 100 µM | HT-29 55.3 µM | OVCAR-4 > 100 µM | SK-MEL-2 > 100 µM | NCI/ADR-RES > 100 µM | T47D > 100 µM | NCI-H460 90.4 µM | 786-0 > 100 µM | HCC 2998 > 100 µM

Source: ChEMBL document CHEMBL1201862, “PubChem BioAssay data set” (2004)
